# Counter-ions that a name gives are not always drawn. Like-named read-outs stand apart in the source and are kept apart here. Where a SMILES comes first, the peptide text is derived from it. [ ]: non-standard residue; d: D form. pGlu = O=C1CC[C@@H](C(=O)O)N1; Thz = O=C(O)[C@@H]1CSCN1
# Key:
# [1] = target: T1, SARS-CoV-2 PLpro (nsp3 1564–1878) (Severe acute respiratory syndrome coronavirus 2, UniProt P0DTD1); experiment: biochemical; set-up: FRET-quenched peptide (Pro3) cleavage by PLpro, 10 min pre-incubation, slope over 20 min, normalised to no-compound control; conditions: read-out: % of control remaining
# [2] = target: T1, SARS-CoV-2 PLpro (nsp3 1564–1878); experiment: biochemical; set-up: FRET-quenched peptide (Pro3) cleavage by PLpro, 10 min pre-incubation, slope over 20 min, normalised to no-compound control; conditions: read-out: % of control remaining; remark: listed apart in the source
smiles,measurement,setting,value
CCCCCCCCCCCCCC[C@@H](O)[C@@H](O)[C@@H](N)CO [Phytosphingosine],remaining activity at 1.25 µM,"[1]; Well no.=3082, low concentration screen",102%
same,remaining activity at 3.75 µM,"[2]; Well no.=3082, high concentration screen",103%
CCCCN1CCC(CNC(=O)c2c3n(c4ccccc24)CCCO3)CC1 [Piboserod],remaining activity at 1.25 µM,"[1]; Well no.=7965, low concentration screen",93.1%
same,remaining activity at 3.75 µM,"[2]; Well no.=7965, high concentration screen",93.6%
Oc1cc(O)cc(/C=C/c2ccc(O)c(O)c2)c1 [Piceatannol],remaining activity at 1.25 µM,"[1]; Well no.=948, low concentration screen",98.3%
same,remaining activity at 1.25 µM,"[1]; Well no.=3084, low concentration screen",107%
same,remaining activity at 1.25 µM,"[1]; Well no.=3939, low concentration screen",105%
same,remaining activity at 3.75 µM,"[2]; Well no.=948, high concentration screen",92.7%
same,remaining activity at 3.75 µM,"[2]; Well no.=3084, high concentration screen",98.8%
same,remaining activity at 3.75 µM,"[2]; Well no.=3939, high concentration screen",102%
COc1ccc(C(=O)NCc2cccnc2)cc1C(=O)NCc1cccnc1 [Picotamide],remaining activity at 1.25 µM,"[1]; Well no.=1351, low concentration screen",102%
same,remaining activity at 1.25 µM,"[1]; Well no.=2202, low concentration screen",88.9%
same,remaining activity at 3.75 µM,"[2]; Well no.=1351, high concentration screen",102%
same,remaining activity at 3.75 µM,"[2]; Well no.=2202, high concentration screen",90.3%
COc1cc([C@@H]2c3cc4c(cc3[C@H](O)[C@H]3COC(=O)[C@@H]23)OCO4)cc(OC)c1OC [Picropodophyllin],remaining activity at 1.25 µM,"[1]; Well no.=3341, low concentration screen",95.7%
same,remaining activity at 3.75 µM,"[2]; Well no.=3341, high concentration screen",98.4%
C=C(C)[C@@H]1[C@H]2OC(=O)[C@@H]1[C@]1(O)C[C@H]3O[C@]34C(=O)O[C@H]2[C@]14C [Picrotoxinin],remaining activity at 1.25 µM,[1],101%
same,remaining activity at 3.75 µM,[2],101%
O=C1CC[C@@H](C(=O)N2CSC[C@H]2C(=O)O)N1 [Pidotimod] ([pGlu]-[Thz]-OH),remaining activity at 1.25 µM,"[1]; Well no.=7508, low concentration screen",101%
same,remaining activity at 3.75 µM,"[2]; Well no.=4933, high concentration screen",105%
same,remaining activity at 3.75 µM,"[2]; Well no.=7508, high concentration screen",97.7%
CC[C@@H]1C(=O)OC[C@@H]1Cc1cncn1C [Pilocarpine (Hydrochloride)],remaining activity at 1.25 µM,"[1]; Well no.=7627, low concentration screen",99.7%
same,remaining activity at 3.75 µM,"[2]; Well no.=7627, high concentration screen",96.7%
CC[C@@H]1C(=O)OC[C@@H]1Cc1cncn1C [Pilocarpine nitrate],remaining activity at 1.25 µM,"[1]; Well no.=1150, low concentration screen",96.8%
same,remaining activity at 3.75 µM,"[2]; Well no.=1150, high concentration screen",97%
CC[C@@H]1C(=O)OC[C@@H]1Cc1cncn1C [Pilocarpine.HCl],remaining activity at 1.25 µM,"[1]; Well no.=1793, low concentration screen",98.6%
same,remaining activity at 1.25 µM,"[1]; Well no.=3729, low concentration screen",101%
same,remaining activity at 3.75 µM,"[2]; Well no.=1793, high concentration screen",98.6%
same,remaining activity at 3.75 µM,"[2]; Well no.=3729, high concentration screen",105%
C[C@@H]1C/C=C/C=C/C=C/C=C/[C@H](O[C@@H]2O[C@H](C)[C@@H](O)[C@H](N)[C@@H]2O)C[C@@H]2O[C@](O)(C[C@@H](O)C[C@H]3O[C@@H]3/C=C/C(=O)O1)C[C@H](O)[C@H]2C(=O)O [Pimaricin],remaining activity at 1.25 µM,"[1]; Well no.=3703, low concentration screen",96.5%
same,remaining activity at 3.75 µM,"[2]; Well no.=3703, high concentration screen",102%
CC(C)COc1ccc(CNC(=O)N(Cc2ccc(F)cc2)C2CCN(C)CC2)cc1 [Pimavanserin tartrate],remaining activity at 1.25 µM,"[1]; Well no.=6989, low concentration screen",103%
same,remaining activity at 3.75 µM,"[2]; Well no.=6989, high concentration screen",102%
CC(C)COc1ccc(CNC(=O)N(Cc2ccc(F)cc2)C2CCN(C)CC2)cc1 [Pimavanserin],remaining activity at 1.25 µM,"[1]; Well no.=6521, low concentration screen",95%
same,remaining activity at 3.75 µM,"[2]; Well no.=6521, high concentration screen",95.9%
CC[C@@H]1/C=C(\C)C[C@H](C)C[C@H](OC)[C@H]2O[C@@](O)(C(=O)C(=O)N3CCCC[C@H]3C(=O)O[C@H](/C(C)=C/[C@@H]3CC[C@H](Cl)[C@H](OC)C3)[C@H](C)[C@@H](O)CC1=O)[C@H](C)C[C@@H]2OC [Pimecrolimus],remaining activity at 1.25 µM,"[1]; Well no.=8178, low concentration screen",93.5%
same,remaining activity at 3.75 µM,"[2]; Well no.=8178, high concentration screen",91.3%
Cc1ccc(NC(=O)CCCCCC(=O)Nc2ccccc2N)cc1 [Pimelic Diphenylamide 106 (analog)],remaining activity at 1.25 µM,"[1]; Well no.=8230, low concentration screen",104%
same,remaining activity at 3.75 µM,"[2]; Well no.=8230, high concentration screen",102%
Cc1ccc(NC(=O)CCCCCC(=O)Nc2ccccc2N)cc1 [Pimelic Diphenylamide 106],remaining activity at 1.25 µM,"[1]; Well no.=5991, low concentration screen",101%
same,remaining activity at 3.75 µM,"[2]; Well no.=5991, high concentration screen",99.4%
O=C(O)CCCCCC(=O)O [Pimelic acid],remaining activity at 1.25 µM,"[1]; Well no.=7115, low concentration screen",96.9%
same,remaining activity at 3.75 µM,"[2]; Well no.=7115, high concentration screen",99.2%
COc1ccc(-c2nc3cc(C4=NNC(=O)CC4C)ccc3[nH]2)cc1 (stereo not shown) [Pimobendan (Vetmedin)],remaining activity at 1.25 µM,"[1]; Well no.=4957, low concentration screen",100%
same,remaining activity at 3.75 µM,"[2]; Well no.=4957, high concentration screen",103%
O=c1[nH]c2ccccc2n1C1CCN(CCCC(c2ccc(F)cc2)c2ccc(F)cc2)CC1 [Pimozide],remaining activity at 1.25 µM,"[1]; Well no.=1094, low concentration screen",93.3%
same,remaining activity at 1.25 µM,"[1]; Well no.=1595, low concentration screen",99.2%
same,remaining activity at 3.75 µM,"[2]; Well no.=1094, high concentration screen",95%
same,remaining activity at 3.75 µM,"[2]; Well no.=1595, high concentration screen",95.7%
CC(N/C(=N\C#N)Nc1ccncc1)C(C)(C)C (stereo not shown) [Pinacidil],remaining activity at 1.25 µM,"[1]; Well no.=1503, low concentration screen",98.1%
same,remaining activity at 1.25 µM,"[1]; Well no.=1603, low concentration screen",103%
same,remaining activity at 3.75 µM,"[2]; Well no.=1503, high concentration screen",97.2%
same,remaining activity at 3.75 µM,"[2]; Well no.=1603, high concentration screen",98.9%
O=C1C[C@@H](c2ccccc2)Oc2cc(O)cc(O)c21 [Pinocembrin],remaining activity at 1.25 µM,"[1]; Well no.=3587, low concentration screen",99.6%
same,remaining activity at 3.75 µM,"[2]; Well no.=3587, high concentration screen",98.4%
CCc1ccc(CCOc2ccc(CC3SC(=O)NC3=O)cc2)nc1 (stereo not shown) [Pioglitazone],remaining activity at 1.25 µM,"[1]; Well no.=1718, low concentration screen",98.7%
same,remaining activity at 3.75 µM,"[2]; Well no.=1718, high concentration screen",98%
O=C(O)C1CCCCN1 (stereo not shown) [Pipecolic acid],remaining activity at 1.25 µM,"[1]; Well no.=6929, low concentration screen",103%
same,remaining activity at 3.75 µM,"[2]; Well no.=6929, high concentration screen",102%
CCN1CCN(C(=O)N[C@@H](C(=O)N[C@@H]2C(=O)N3[C@@H]2SC(C)(C)[C@@H]3C(=O)O)c2ccccc2)C(=O)C1=O [Piperacillin (sodium)],remaining activity at 1.25 µM,"[1]; Well no.=8072, low concentration screen",96.2%
same,remaining activity at 3.75 µM,"[2]; Well no.=8072, high concentration screen",91.7%
CCN1CCN(C(=O)N[C@@H](C(=O)N[C@@H]2C(=O)N3[C@@H]2SC(C)(C)[C@@H]3C(=O)O)c2ccccc2)C(=O)C1=O [Piperacillin],remaining activity at 1.25 µM,"[1]; Well no.=2107, low concentration screen",104%
same,remaining activity at 3.75 µM,"[2]; Well no.=2107, high concentration screen",104%
O=S(=O)(O)C1CCNCC1 [Piperidine-4-sulphonic acid],remaining activity at 1.25 µM,"[1]; Well no.=1449, low concentration screen",99.5%
same,remaining activity at 3.75 µM,"[2]; Well no.=1449, high concentration screen",94.6%
O=C(/C=C/C=C/c1ccc2c(c1)OCO2)N1CCCCC1 [Piperine],remaining activity at 1.25 µM,"[1]; Well no.=3110, low concentration screen",92.8%
same,remaining activity at 1.25 µM,"[1]; Well no.=8242, low concentration screen",99.3%
same,remaining activity at 3.75 µM,"[2]; Well no.=3110, high concentration screen",94.5%
same,remaining activity at 3.75 µM,"[2]; Well no.=8242, high concentration screen",96.3%
c1ccc2c(c1)OCC(CN1CCCCC1)O2 (stereo not shown) [Piperoxan (hydrochloride)],remaining activity at 1.25 µM,"[1]; Well no.=7383, low concentration screen",106%
same,remaining activity at 3.75 µM,"[2]; Well no.=7383, high concentration screen",105%
NC(=O)CN1CCCC1=O [Piracetam],remaining activity at 1.25 µM,"[1]; Well no.=1100, low concentration screen",96.7%
same,remaining activity at 3.75 µM,"[2]; Well no.=1100, high concentration screen",97.5%
Cc1nc2ccccn2c(=O)c1CCN1CCC(C(=O)c2ccc(F)cc2)CC1 [Pirenperone],remaining activity at 1.25 µM,"[1]; Well no.=1359, low concentration screen",101%
same,remaining activity at 3.75 µM,"[2]; Well no.=1359, high concentration screen",102%
Cc1ccc(=O)n(-c2ccccc2)c1 [Pirfenidone],remaining activity at 1.25 µM,"[1]; Well no.=904, low concentration screen",107%
same,remaining activity at 3.75 µM,"[2]; Well no.=904, high concentration screen",109%
c1cnc(N2CCN(Cc3ccc4c(c3)OCO4)CC2)nc1 [Piribedil maleate],remaining activity at 1.25 µM,"[1]; Well no.=1163, low concentration screen",96.1%
same,remaining activity at 3.75 µM,"[2]; Well no.=1163, high concentration screen",96.2%

# Source: article PMC8286840, “Identifying SARS-CoV-2 antiviral compounds by screening for small molecule inhibitors of Nsp3 papain-like protease” (Biochemical Journal, 2021)
